Measurements published in patent US20240376085A1 (Janssen Pharmaceutica NV, priority 2021, published 2024).

Experiments:
[1] = test system: IL-17A-induced G-CSF production in human normal keratinocyte (NHK); assay: NHK assay: IL-17A-induced G-CSF production in normal human keratinocytes; type: cell-based; conditions: Homo sapiens, Keratinocyte, 24 h, IL-17A 5 ng/mL, average if tested more than once
Summary of the method: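 Stimulus rhIL-17A 5 ng/mL final, premixed 1 h rt with compound; adult NHK, 5% FBS, 0.2% DMSO. Viability by CellTiter-Glo vs DMSO.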

IL-17A : IL-17RA binding = biological target: T1, IL-17A : IL-17RA binding (Homo sapiens, UniProt Q16552, K93Q); assay: IL-17A(FLAG-tagged):IL-17RA(His-tagged) binding disruption Eu-HTRF assay, Protocol 1; conditions: FLAG-IL-17A 2.5 nM at 2x final concentration; average if tested more than once
T1 construct: Name: IL-17A-Flag
T1 sequence (Q16552 with tags, fused parts or gaps K93Q): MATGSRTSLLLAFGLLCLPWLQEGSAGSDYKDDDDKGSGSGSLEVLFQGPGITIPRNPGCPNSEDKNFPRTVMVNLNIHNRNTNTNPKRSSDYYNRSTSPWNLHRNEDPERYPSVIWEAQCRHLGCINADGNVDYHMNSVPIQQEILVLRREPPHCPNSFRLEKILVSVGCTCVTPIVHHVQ
Summary of the method: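 IC50 came from a one-site competition fit of the acceptor/donor (665/620 nm) HTRF ratio. His-tagged IL-17RA, Eu-anti-FLAG and D2-anti-His were added after a 1 h rt compound preincubation with FLAG-tagged IL-17A dimer in PBS/0.01% Triton X-100, followed by 2 h at rt before reading.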

Row | IC50 (IL-17A : IL-17RA binding) [nM] | SMILES | IC50 [1] [nM]
1 | > 100 | C[C@@H](NC(=O)CCC(F)(F)F)c1ccc2[nH]c([C@@H](NC(=O)c3cnn(CCOC(F)F)n3)C3CCC(F)(F)CC3)nc2c1 [Example 33, N—[(S)-(4,4-Difluorocyclohexyl)-[6-[(1R)-1-(4,4,4-trifluorobutanoylamino)ethyl]-1H-benzimidazol-2-yl]methyl]-2-[2-(difluoromethoxy)ethyl]triazole-4-carboxamide] | > 100
2 | > 100 | C[C@@H](NC(=O)CCC(F)(F)F)c1ccc2[nH]c([C@@H](NC(=O)c3cnnn3CCOC(F)F)C3CCC(F)(F)CC3)nc2c1 [Example 34, N—[(S)-(4,4-Difluorocyclohexyl)-[6-[(1R)-1-(4,4,4-trifluorobutanoylamino)ethyl]-1H-benzimidazol-2-yl]methyl]-3-[2-(difluoromethoxy)ethyl]triazole-4-carboxamide] | 50 to 100
3 | > 100 | C[C@@H](NC(=O)CCC(F)(F)F)c1ccc2[nH]c([C@@H](NC(=O)c3cnn(CCOC(F)(F)F)n3)C3CCC(F)(F)CC3)nc2c1 [Example 35, N—[(S)-(4,4-Difluorocyclohexyl)-[6-[(1R)-1-(4,4,4-trifluorobutanoylamino)ethyl]-1H-benzimidazol-2-yl]methyl]-2-[2-(trifluoromethoxy)ethyl]triazole-4-carboxamide] | > 100
4 | > 100 | C[C@@H](NC(=O)CCC(F)(F)F)c1ccc2[nH]c([C@@H](NC(=O)c3cnnn3CCOC(F)(F)F)C3CCC(F)(F)CC3)nc2c1 [Example 36, N—[(S)-(4,4-Difluorocyclohexyl)-[6-[(1R)-1-(4,4,4-trifluorobutanoylamino)ethyl]-1H-benzimidazol-2-yl]methyl]-3-[2-(trifluoromethoxy)ethyl]triazole-4-carboxamide] | 50 to 100
5 | > 100 | C[C@@H](NC(=O)CCC(F)(F)F)c1ccc2[nH]c([C@@H](NC(=O)c3cnn(CC(F)F)n3)C3CCC(F)(F)CC3)nc2c1 [Example 37, N—[(S)-(4,4-Difluorocyclohexyl)-[6-[(1R)-1-(4,4,4-trifluorobutanoylamino)ethyl]-1H-benzimidazol-2-yl]methyl]-2-(2,2-difluoroethyl)triazole-4-carboxamide] | > 100
6 | > 100 | C[C@@H](NC(=O)CCC(F)(F)F)c1ccc2[nH]c([C@@H](NC(=O)c3cnnn3CC(F)F)C3CCC(F)(F)CC3)nc2c1 [Example 38, N—[(S)-(4,4-Difluorocyclohexyl)-[6-[(1R)-1-(4,4,4-trifluorobutanoylamino)ethyl]-1H-benzimidazol-2-yl]methyl]-3-(2,2-difluoroethyl)triazole-4-carboxamide] | > 100
7 | > 100 | CC(C)n1cnc(C(=O)N[C@H](c2nc3cc([C@@H](C)NC(=O)CCC(F)(F)F)ccc3[nH]2)C2CCC(F)(F)CC2)n1 [Example 39, N—[(S)-(4,4-Difluorocyclohexyl)-[6-[(1R)-1-(4,4,4-trifluorobutanoylamino)ethyl]-1H-benzimidazol-2-yl]methyl]-1-isopropyl-1,2,4-triazole-3-carboxamide] | > 100
8 | > 100 | C[C@@H](NC(=O)CCC(F)(F)F)c1ccc2[nH]c([C@@H](NC(=O)c3ncn(CCC(F)F)n3)C3CCC(F)(F)CC3)nc2c1 [Example 40, N—[(S)-(4,4-Difluorocyclohexyl)-[6-[(1R)-1-(4,4,4-trifluorobutanoylamino)ethyl]-1H-benzimidazol-2-yl]methyl]-1-(3,3-difluoropropyl)-1,2,4-triazole-3-carboxamide] | > 100
9 | > 100 | C[C@@H](NC(=O)CCC(F)(F)F)c1ccc2[nH]c([C@@H](NC(=O)c3ncnn3CCC(F)F)C3CCC(F)(F)CC3)nc2c1 [Example 41, N—[(S)-(4,4-Difluorocyclohexyl)-[6-[(1R)-1-(4,4,4-trifluorobutanoylamino)ethyl]-1H-benzimidazol-2-yl]methyl]-2-(3,3-difluoropropyl)-1,2,4-triazole-3-carboxamide] | > 100
10 | > 100 | C[C@@H](NC(=O)CCC(F)(F)F)c1ccc2nc([C@@H](NC(=O)c3cnn(C)c3C(F)(F)F)C3CCC(F)(F)CC3)[nH]c2c1 [Example 58, N—((S)-(4,4-Difluorocyclohexyl)(6-((R)-1-(4,4,4-trifluorobutanamido)ethyl)-1H-benzo[d]imidazol-2-yl)methyl)-1-methyl-5-(trifluoromethyl)-1H-pyrazole-4-carboxamide] | > 100
11 | > 100 | C[C@@H](NC(=O)CCC(F)(F)F)c1ccc2nc([C@@H](NC(=O)c3cnn(C)c3C(F)F)C3CCC(F)(F)CC3)[nH]c2c1 [Example 59, N—((S)-(4,4-Difluorocyclohexyl)(6-((R)-1-(4,4,4-trifluorobutanamido)ethyl)-1H-benzo[d]imidazol-2-yl)methyl)-5-(difluoromethyl)-1-methyl-1H-pyrazole-4-carboxamide] | > 100
12 | > 100 | C[C@@H](NC(=O)CCC(F)(F)F)c1ccc2nc([C@@H](NC(=O)c3cnnn3C3CC3)C3CCC(F)(F)CC3)[nH]c2c1 [Example 60, 1-Cyclopropyl-N—((S)-(4,4-difluorocyclohexyl)(6-((R)-1-(4,4,4-trifluorobutanamido)ethyl)-1H-benzo[d]imidazol-2-yl)methyl)-1H-1,2,3-triazole-5-carboxamide] | > 100
13 | > 100 | C[C@@H](NC(=O)CCC(F)(F)F)c1ccc2nc([C@@H](NC(=O)c3cnn(CC4CC4)c3)C3CCC(F)(F)CC3)[nH]c2c1 [Example 61, 1-(Cyclopropylmethyl)-N—((S)-(4,4-difluorocyclohexyl)(6-((R)-1-(4,4,4-trifluorobutanamido)ethyl)-1H-benzo[d]imidazol-2-yl)methyl)-1H-pyrazole-4-carboxamide] | > 100
14 | > 100 | C[C@@H](NC(=O)CCC(F)(F)F)c1ccc2nc([C@@H](NC(=O)c3cnn(CC4CCC4)n3)C3CCC(F)(F)CC3)[nH]c2c1 [Example 62, 2-(Cyclobutylmethyl)-N—((S)-(4,4-difluorocyclohexyl)(6-((R)-1-(4,4,4-trifluorobutanamido)ethyl)-1H-benzo[d]imidazol-2-yl)methyl)-2H-1,2,3-triazole-4-carboxamide] | > 100
15 | 50 to 100 | C[C@@H](NC(=O)CCC(F)(F)F)c1ccc2nc([C@@H](NC(=O)c3cnnn3CC3CCC3)C3CCC(F)(F)CC3)[nH]c2c1 [Example 63, 1-(Cyclobutylmethyl)-N—((S)-(4,4-difluorocyclohexyl)(6-((R)-1-(4,4,4-trifluorobutanamido)ethyl)-1H-benzo[d]imidazol-2-yl)methyl)-1H-1,2,3-triazole-5-carboxamide] | 50 to 100
16 | > 100 | C[C@@H](NC(=O)CCC(F)(F)F)c1ccc2nc([C@@H](NC(=O)c3cnn(CC4CC(F)(F)C4)n3)C3CCC(F)(F)CC3)[nH]c2c1 [Example 64, 2-((3,3-Difluorocyclobutyl)methyl)-N—((S)-(4,4-difluorocyclohexyl)(6-((R)-1-(4,4,4-trifluorobutanamido)ethyl)-1H-benzo[d]imidazol-2-yl)methyl)-2H-1,2,3-triazole-4-carboxamide] | > 100
17 | > 100 | C[C@@H](NC(=O)CCC(F)(F)F)c1ccc2nc([C@@H](NC(=O)c3cn(CC4CC(F)(F)C4)nn3)C3CCC(F)(F)CC3)[nH]c2c1 [Example 65, 1-((3,3-Difluorocyclobutyl)methyl)-N—((S)-(4,4-difluorocyclohexyl)(6-((R)-1-(4,4,4-trifluorobutanamido)ethyl)-1H-benzo[d]imidazol-2-yl)methyl)-1H-1,2,3-triazole-4-carboxamide] | > 100
18 | > 100 | C[C@@H](NC(=O)CCC(F)(F)F)c1ccc2nc([C@@H](NC(=O)c3cnnn3CC3CC(F)(F)C3)C3CCC(F)(F)CC3)[nH]c2c1 [Example 66, 1-((3,3-Difluorocyclobutyl)methyl)-N—((S)-(4,4-difluorocyclohexyl)(6-((R)-1-(4,4,4-trifluorobutanamido)ethyl)-1H-benzo[d]imidazol-2-yl)methyl)-1H-1,2,3-triazole-5-carboxamide] | 50 to 100
19 | > 100 | C[C@@H](NC(=O)CCC(F)(F)F)c1ccc2nc([C@@H](NC(=O)c3cnn(CCC(C)(C)C)n3)C3CCC(F)(F)CC3)[nH]c2c1 [Example 67, N—((S)-(4,4-Difluorocyclohexyl)(6-((R)-1-(4,4,4-trifluorobutanamido)ethyl)-1H-benzo[d]imidazol-2-yl)methyl)-2-(3,3-dimethylbutyl)-2H-1,2,3-triazole-4-carboxamide] | > 100
20 | > 100 | C[C@@H](NC(=O)CCC(F)(F)F)c1ccc2nc([C@@H](NC(=O)c3cnnn3CCC(C)(C)C)C3CCC(F)(F)CC3)[nH]c2c1 [Example 68, N—((S)-(4,4-Difluorocyclohexyl)(6-((R)-1-(4,4,4-trifluorobutanamido)ethyl)-1H-benzo[d]imidazol-2-yl)methyl)-1-(3,3-dimethylbutyl)-1H-1,2,3-triazole-5-carboxamide] | > 100
21 | > 100 | C[C@@H](NC(=O)CCC(F)(F)F)c1ccc2nc([C@@H](NC(=O)c3cnn(CCC(F)F)n3)C3CCC(F)(F)CC3)[nH]c2c1 [Example 73, N—((S)-(4,4-Difluorocyclohexyl)(6-((R)-1-(4,4,4-trifluorobutanamido)ethyl)-1H-benzo[d]imidazol-2-yl)methyl)-2-(3,3-difluoropropyl)-2H-1,2,3-triazole-4-carboxamide] | > 100
